In patent US12600732B2, “Bifunctional compounds for degrading BTK via ubiquitin proteosome pathway” (NURIX THERAPEUTICS, INC., priority 2019, dated 2026):
Like-named read-outs stand apart in the source and are kept apart here.

Assays:
[1] = molecular target: BTK C481S (Homo sapiens, UniProt Q06187, C481S); assay: BTK degradation (Total BTK HTRF) in TMD8 cells expressing BTK-C481S; type: cell-based; set-up: endogenous in cells; host or cells: TMD8 BTK-C481S (clone2C3), Cas9 RNP knock-in; details: TMD8 BTK-C481S (clone2C3) cells, treatment time 4 h
How it was run: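 TMD8 cells expressing BTK-C481S were treated for four hours, then lysed for 30 min. Total BTK was measured by HTRF with Eu-cryptate donor and d2 acceptor antibodies as the 665/620 nm ratio, minus donor-only background. DC50 came from four-parameter fits of signal relative to DMSO-treated cells.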

[2] = molecular target: BTK (Homo sapiens, UniProt Q06187); assay: BTK degradation (Total BTK HTRF) in Rec-1 cells (Mantle Cell Lymphoma model); type: cell-based; set-up: endogenous in cells; host or cells: TMD8, Mino, Rec-1; details: treatment time 4 h
Experimental: BTK levels were determined using Cisbio Total-BTK HTRF (Homologous Time-Resolved Fluorescence) kit (63ADK064PEG) according to the manufacturer's protocol. Briefly, cells were incubated in 1× supplied lysis buffer for 30 minutes. In an opaque white low volume 96-well plate (Cisbio, 66PL96005), cell lysate was combined with two different specific BTK antibodies, one conjugated with Eu^3+-Cryptate FRET donor and one conjugated with d2 FRET acceptor. Assay controls include wells containing cell lysate with only the Eu^3+-Cryptate FRET donor antibody and wells containing both HTRF antibodies and lysis buffer without cells or control lysate provided by Cisbio. HTRF ratio was calculated as (acceptor signal at 665 nm/donor signal at 620 nm)×10^4. Background HTRF levels were determined from the control well containing the donor, but no acceptor, antibody. Background HTRF levels were subtracted from all samples. Readouts were reported as HTRF levels relative to HTRF levels of DMSO-treated cells. Four-parameter non-linear regressions were performed in GraphPad Prism 7.02 to obtain DC50 values.
This example evaluates the potency of CTMs in a model of Mantle Cell Lymphoma (MCL). To evaluate potential therapeutic indications, BTK CTMs were assayed in models of Mantle Cell Lymphoma as with the TMD8 cells (ABC-DLBCL) above. Tested CTMs had similar potencies for BTK degradation in the MCL cell lines (Mino and Rec-1) and TMD8 cells.

[3] = system: BTK; assay: Non-human primate (cyno) DRF PD, BTK remaining in B cells; type: in vivo; details: blood, 24 h after previous dose
Experimental: This example evaluates potency and tolerability of BTK CTMs following multiple, consecutive days of dosing and examines potency of compounds for BTK and Aiolos degradation. The data in the table below is from a study in which animals were dosed daily with the designated oral dose. Analysis for BTK and Aiolos levels was performed twenty-four hours following the previous dose.

[4] = system: CRBN neo-substrates; assay: CRBN neo-substrate levels / IMiD activity in MOLT4 and TMD8 cells (FIGS. 10-12); type: cell-based; details: for effect on CRBN neo-substrate levels in cells: MOLT4 and TMD8 cells, FIGS. 11A and 11B; for effects on CRBN neo-substrate levels: after twenty-four hours, TMD8 and/or MOLT4 cells, FIGS. 10A and 10B; for IMiD activity: FIG. 12
From the text: FIGS. 10A and 10B provide effects of compounds 73, 72, 121, and 44, and control compounds, on neo-substrate and ITK or BTK levels after twenty-four hours in MOLT4 cells (FIG. 10A) and TMD8 cells (FIG. 10B).
FIGS. 11A and 11B provide effects of compounds 44, 72, and 149, and control compounds, on CRBN neo-substrate and ITK levels in MOLT4 cells (FIG. 11A) and TMD8 cells (FIG. 11B).
FIG. 12 provides effects of compounds 130, 149, and 44 on ITK levels and IMiD activity.

[5] = system: TMD8 cells; assay: Cell viability assay (CellTiter-Glo), TMD8 cells; details: for EC50: Homo sapiens, TMD8, 72 h; for EMAX (% viable cells): TMD8 cells, treatment time 72 h
[6] = system: TMD8 C481S cells; assay: Cell viability assay (CellTiter-Glo), TMD8 C481S cells; details: for EC50: Homo sapiens, TMD8, 72 h; for EMAX (% viable cells): TMD8 C481S cells, treatment time 72 h
[7] = system: B cell receptor (BCR) signaling; assay: B cell activation assay (flow cytometry), mouse B cells; type: cell-based; details: treatment 4 h, IgM stimulation 18 h
Experimental: Compound was present throughout the stimulation. Cells were stained with Live/Dead dye (Fisher L34976) and then fluorophore-conjugated antibodies against CD20 (Biolegend 302330), CD3 (BD Pharmingen 557705), CD86 (Biolegend 305416) and CD69 (Biolegend 310906). Stained cells were fixed in PFA and run on an Attune N×T Acoustic Focusing Flow Cytometer (Thermo-Fisher A29004), and data was analyzed using FlowJo (v10.5.3) and GraphPad Prism (v7.00) software. Single live lymphocytes were gated for B cells (CD20+CD3−) and T cells (CD3+CD20−), and the geometric mean fluorescence intensity (MFI) of CD86 and CD69 was calculated for each population. The MFI of the unstimulated sample was used to quantify baseline activation.
This example evaluates whether CTM treatment affects B cell receptor (BCR) signaling. BTK is activated downstream of the B cell receptor and leads to upregulation of activation markers CD86 and CD69 on the surface of B cells.

[8] = 10 mg/kg PO daily, 1 day of dosing
[9] = 10 mg/kg PO daily, 14 days of dosing
[10] = 30 mg/kg PO daily, 1 day of dosing
[11] = 30 mg/kg PO daily, 14 days of dosing
[12] = 100 mg/kg PO daily, 1 day of dosing
[13] = 100 mg/kg PO daily, 14 days of dosing

| Structure (SMILES) | DC50 [1] [nM] | DC50 [2] [nM] | % BTK Remaining in B cells [3, 8] [%] | % BTK Remaining in B cells [3, 9] [%] | % BTK Remaining in B cells [3, 10] [%] | % BTK Remaining in B cells [3, 11] [%] | % BTK Remaining in B cells [3, 12] [%] | % BTK Remaining in B cells [3, 13] [%] | effect on CRBN neo-substrate levels in cells [4] | effects on CRBN neo-substrate levels [4] | EC50 [5] [nM] | EMAX (% viable cells) [5] [%] | EC50 [6] [nM] | EMAX (% viable cells) [6] [%] | EC50 ([7]; read-out: CD69 EC50) [nM] | EC50 ([7]; read-out: CD86 EC50) [nM] | IMiD activity [4] |
| --- | --- | --- | --- | --- | --- | --- | --- | --- | --- | --- | --- | --- | --- | --- | --- | --- | --- |
| CN1CCN([C@@H]2CCCN(c3cnc(C(N)=O)c(Nc4ccc(C5CCN(C[C@H]6CCN(c7ccc8c(c7)C(=O)N(C7CCC(=O)NC7=O)C8=O)C6)CC5)cc4)n3)C2)C1=O (some centres unmarked) [Compound 44] | 1.8 | 1 | 35 | 16 | 31 | 10 | 14 | 6 | some effect | some effects | 3.73 | 15 | 8.1 | 25 | 0.2 | 0.4 |  |
| CN1CCN([C@@H]2CCCN(c3cnc(C(N)=O)c(Nc4ccc(C5CCN(CC6CCN(c7ccc8c(=O)n(C9CCC(=O)NC9=O)ccc8c7)CC6)CC5)cc4)n3)C2)C1=O (some centres unmarked) [Compound 72] | 2 |  |  |  |  |  |  |  |  | does not effect | 0.429 | 26 | 1.16 | 21 | 0.07 | 0.2 | did not have IMiD activity |
| CN1CCN([C@@H]2CCCN(c3cnc(C(N)=O)c(Nc4ccc(C5CCN(CC6CCN(c7ccc(-c8nn(C9CCC(=O)NC9=O)c(=O)n8C)cc7)CC6)CC5)cc4)n3)C2)C1=O (some centres unmarked) [Compound 121] | 4.1 |  |  |  |  |  |  |  |  | minimal effects | 1.54 | 28 | 4.94 | 31 | 0.5 | 0.9 |  |
| CN1CCN([C@H]2CCCN(c3cnc(C(N)=O)c(Nc4ccc(C5CCN(CC6CCN(c7ccc(C(=O)NC8CCC(=O)NC8=O)nc7)CC6)CC5)cc4)n3)C2)C1=O (some centres unmarked) [Compound 130] | 1.8 | 2 | 6 | 5 | 3 | 5 | 4 | 4 |  |  | 1.5 | 27 | 4.83 | 33 |  |  | did not have IMiD activity |
| NC(=O)c1ncc(N2CCCCC2)nc1Nc1ccc(C2CCN(C[C@@H]3CCN(c4ccc5c(c4)C(=O)N(C4CCC(=O)NC4=O)C5=O)C3)CC2)cc1 (some centres unmarked) [Compound 149] | 14.4 | 4 | 9 | 7 | 4 | 6 | 3 | 6 | some effect |  | 9.62 | 7 | 37.2 | 18 |  |  |  |
